Laboratory results as given in patent publication US20220088231A1, “RADIOIMMUNOCONJUGATES AND DNA DAMAGE AND REPAIR INHIBITOR COMBINATION THERAPY” (Fusion Pharmaceuticals Inc., priority 2018, published 2022).
“Also recorded” adds a separate entry of the source.

Key:
[1] = Animal tolerability observation during BAY-1895344 dosing in the Colo-205 xenograft study; format: in vivo; details: Example 2: BAY-1895344 three times a week starting with 40 mg/kg, dose gradually reduced to 20 mg/kg
[2] = system: Colo-205 (colorectal cancer) xenograft model; test: In vivo efficacy/synergy study, relative tumor volume in Colo-205 xenograft model; details: for Relative tumor volume: 5 days on
Description: (§1) An in vivo efficacy study was conducted with olaparib alone as a single agent. […] Groups of animals (n=5) were dosed with olaparib (i.p.) 5 days on, 2 days off using 10-100 mg/kg doses.
(§2) Combination groups (n=5) were dosed with olaparib (i.p.) 5 days on, 2 days off, using a 50 mg/kg dose for 28 days.

[3] = system: A549 (NSCLC) xenograft model; test: In vivo efficacy/synergy study, relative tumor volume in A549 xenograft model
Description: as §1, §2

[4] = system: y-H2AX foci (DSB formation); test: Immunohistochemical analysis of y-H2AX foci after olaparib treatment in xenograft models; format: in vivo; details: Example 3: after olaparib treatment, i.p. 10-100 mg/kg; Colo-205 and A549 xenograft models
Description: An in vivo efficacy study was conducted with olaparib alone as a single agent. Olaparib was given as a single agent at different doses in a Colo-205 (colorectal cancer) xenograft model and in an A549 (NSCLC) xenograft model. Groups of animals (n=5) were dosed with olaparib (i.p.) 5 days on, 2 days off using 10-100 mg/kg doses.

With `C[C@@H]1COCCN1c1cc(-c2ccnn2C)c2ccnc(-c3ccn[nH]3)c2n1` [BAY-1895344] the Animal somnolence [1] was “transient animal somnolence at the higher doses”.
In the case of `O=C(c1cc(Cc2n[nH]c(=O)c3ccccc23)ccc1F)N1CCN(C(=O)C2CC2)CC1` [olaparib], the “Relative tumor volume (single agent efficacy)” value ([2]; Example 3: olaparib i.p. 5 days on, 2 days off, 10-100 mg/kg doses (FIG. 6A)) is reported as “modest efficacy as a single agent; also recorded: did not appear to be a dose response”, the Relative tumor volume ([2]; Example 4, dosing schedule 1 (FIG. 7): [225Ac]-FPI-1434 50 nCi, olaparib i.p. 50 mg/kg, 2 days off for 28 days, pre-dosed 3 times prior to [225Ac]-FPI-1434, up to 28 days) is reported as “demonstrated some reduction in tumor volume over time” and the Relative tumor volume ([2]; Example 5, dosing schedule 2 (FIG. 9): [225Ac]-FPI-1434 50 nCi, olaparib i.p. 50 mg/kg, 2 days off for 28 days, first dose 24 hours after FPI-1434, up to 28 days) is reported as “demonstrated significant reduction in tumor volume overtime”. The Relative tumor volume ([2]; Example 6 (FIG. 12): lower effective doses, [225Ac]-FPI-1434 20 nCi and olaparib 25 mg/kg i.p., 2 days off from 24 hours after until day 30) was “no or limited therapeutic effect”, the “Relative tumor volume (single agent efficacy)” value ([3]; Example 3: olaparib i.p. 5 days on, 2 days off, 10-100 mg/kg doses (FIG. 6B)) was “modest efficacy as a single agent; also recorded: did not appear to be a dose response” and the Relative tumor volume ([3]; Example 4, dosing schedule 1 (FIG. 7): [225Ac]-FPI-1434 200 nCi, olaparib i.p. 50 mg/kg, 5 days on, 2 days off for 28 days, pre-dosed 3 times prior to [225Ac]-FPI-1434, up to 28 days) was “no apparent difference in tumor volume over time”. The “DSB formation by immunohistochemical analysis of y-H2AX foci” value [4] was “no increase in DSB formation”.
